US4902716A (priority 1984, dated 1990)
Read-outs that look alike come from different tables or passages of the source.

Key:
[1] = system: cells; test: Cytotoxicity (zone diameter in the antiviral assay); type: cell-based; details: Day 5
Procedure: The following assay method was utilized to illustrate the antiviral effectiveness of the compounds of formulae III and IV: […]
(1) Remove 75 cm^2 culture flasks from incubator (these were plated the previous week).
(3) Wash with 10 ml. PBSA or Puck's Saline.
(5) Wash a second time with 10 mL PBSA or Puck's Saline.
(7) Add 2 ml. trypsin/EDTA. Incubate until cells detach (10-20 min).
(8) Once detached, shake vigorously and immediately add 8 ml. medium and shake again.
(9) Count cells. (To 0.5 ml. cell suspension add 0.1 ml. trypan blue. Wait 5-10 minutes. Count 4 corner squares and middle square of 5×5 array in hemocytometer. Blue cells are dead. Total count per 10 ml. in culture flask=number of live cells×6×10^5).
(10) Maintain cell line by adding 3×10^6 cells to another 75 cm^2 culture flask. Bring to 30 ml. with fresh medium.
(11) For assay, add 1×10^6 cells to each well (6 wells per culture dish). Bring each well to 2 ml. with fresh medium.
(12) Incubate overnight at 37° C.
(2) Add 0.5 of medium containing 200 pfu HSV-I.
(3) Incubate 102 hr with a small amount of shaking.
(4) Add 2 ml. MC-4000 to each well.
(5) Place disks on surface and wash through (1 mg/disc, 0.5 mg/disc, 0.25 mg/disc, etc. for crude extracts).
(6) Incubate 48 hr. (making sure dishes remain level).
(1) Add 2 ml. neutral red medium.
(1) Read wells, e.g. 26 (++) where 26 indicates zone of cytotoxicity as the diameter in mm (12.5 mm to 36 mm) and (++) indicates the inhibition of plaque formation: complete inhibition (+++); a few plaques around the outside of well (++); definite inhibition (+); questionable inhibition (+/-); no inhibition (-); and no conclusion due to complete cytotoxicity.
The following antiviral inhibiting activity results were obtained utilizing the compounds of Formula III and IV at Day 5: […]

[2] = system: VSV; type: cell-based, vesicular stomatitis; details: Day 5, inhibition of plaque formation

Q: How did the Cytotoxicity ([1]; 100 micrograms) turn out when `C=C1C(=O)C=CC(C)(C)[C@@]12C[C@@H](Br)[C@](C)(Cl)C[C@@H]2O` [IV] was run?
A: 0 mm

Q: What about the Cytotoxicity ([1]; 200 micrograms) of the same molecule?
A: 0 mm

Q: And the Cytotoxicity ([1]; 400 micrograms)?
A: 12 mm

Q: And the VSV activity ([2]; 100 micrograms)?
A: +

Q: What about the VSV activity ([2]; 200 micrograms) of the same molecule?
A: ++

Q: And the VSV activity ([2]; 400 micrograms)?
A: ++
